Test results published in patent US5922759A, “Butenolide endothelin antagonists” (Warner-Lambert Company, priority 1997, dated 1999).
pIC50: −log10 of the molar value. Read-outs that look alike come from different tables or passages of the source. Where a SMILES comes first, the peptide text is derived from it. Where no end group is shown, it is not given here. [ ]: non-standard residue; d: D form.

How the values were obtained:
[1] = system: cerebral vasospasm; conditions: rat, cited from earlier work
[2] = system: ETA; conditions: mouse endotoxic shock; cited from earlier work
[3] = system: cerebral vasospasm; conditions: rabbit; cited from earlier work
[4] = target: T1, ETA (rabbit femoral artery) (Oryctolagus cuniculus, UniProt A5A8K3); experiment: Antagonism of ET-1 stimulated vasoconstriction (VERA-A) in the rabbit femoral artery; conditions: ET-1 agonist, antagonist added 30 minutes prior
T1 construct: Femoral and pulmonary arteries were isolated, cleaned of connective tissue, and cut into 4-mm rings; from tissue; host or cells: endothelium-denuded femoral artery rings of male New Zealand rabbits
T1 sequence (A5A8K3 21-427): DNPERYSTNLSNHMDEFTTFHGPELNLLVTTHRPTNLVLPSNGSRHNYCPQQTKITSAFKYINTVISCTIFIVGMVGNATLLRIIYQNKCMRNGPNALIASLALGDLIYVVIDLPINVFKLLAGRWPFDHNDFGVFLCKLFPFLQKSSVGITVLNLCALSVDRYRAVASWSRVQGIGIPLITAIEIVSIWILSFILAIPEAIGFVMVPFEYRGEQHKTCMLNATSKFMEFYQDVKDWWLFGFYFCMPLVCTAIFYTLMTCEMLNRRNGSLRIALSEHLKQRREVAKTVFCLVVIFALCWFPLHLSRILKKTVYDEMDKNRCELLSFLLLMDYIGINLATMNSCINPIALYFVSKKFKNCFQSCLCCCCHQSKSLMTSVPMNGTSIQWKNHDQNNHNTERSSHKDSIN
Protocol: Male New Zealand rabbits were killed by cervical dislocation and exsanguination. Femoral and pulmonary arteries were isolated, cleaned of connective tissue, and cut into 4-mm rings. The endothelium was denuded by placing the rings over hypodermic tubing (32 gauge for femoral rings and 28 gauge for pulmonary rings, Small Parts, Inc, Miami, Fla.) and gently rolling them. […] Resting tension was adjusted to 3.0 g for femoral and 4.0 g pulmonary arteries; the rings were left for 90 minutes to equilibrate.

[5] = target: T2, endothelin receptor ETA (Homo sapiens, UniProt P25101); type: binding; conditions: Human cloned receptor data (footnote c); read-out: ERBA-A IC50
T2 sequence (P25101 21-427): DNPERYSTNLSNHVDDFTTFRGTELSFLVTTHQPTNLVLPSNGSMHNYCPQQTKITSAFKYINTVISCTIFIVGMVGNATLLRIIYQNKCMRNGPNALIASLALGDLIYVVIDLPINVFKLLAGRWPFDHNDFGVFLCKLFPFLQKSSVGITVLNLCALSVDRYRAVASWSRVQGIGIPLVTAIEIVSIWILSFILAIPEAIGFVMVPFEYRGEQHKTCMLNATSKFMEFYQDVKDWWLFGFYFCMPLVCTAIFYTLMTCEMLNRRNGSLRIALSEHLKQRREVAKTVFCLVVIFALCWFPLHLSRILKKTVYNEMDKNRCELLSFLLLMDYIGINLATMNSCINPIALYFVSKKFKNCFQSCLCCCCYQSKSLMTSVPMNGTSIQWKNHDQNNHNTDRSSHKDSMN

[6] = target: T3, human ETB receptor (Homo sapiens, UniProt P24530); type: binding, human (method text also: rat cerebellar membranes); conditions: Human cloned receptor data (footnote c); read-out: ERBA-B IC50
T3 construct: expressed in transfected cells; host or cells: CHO-K1
T3 sequence (P24530 27-442): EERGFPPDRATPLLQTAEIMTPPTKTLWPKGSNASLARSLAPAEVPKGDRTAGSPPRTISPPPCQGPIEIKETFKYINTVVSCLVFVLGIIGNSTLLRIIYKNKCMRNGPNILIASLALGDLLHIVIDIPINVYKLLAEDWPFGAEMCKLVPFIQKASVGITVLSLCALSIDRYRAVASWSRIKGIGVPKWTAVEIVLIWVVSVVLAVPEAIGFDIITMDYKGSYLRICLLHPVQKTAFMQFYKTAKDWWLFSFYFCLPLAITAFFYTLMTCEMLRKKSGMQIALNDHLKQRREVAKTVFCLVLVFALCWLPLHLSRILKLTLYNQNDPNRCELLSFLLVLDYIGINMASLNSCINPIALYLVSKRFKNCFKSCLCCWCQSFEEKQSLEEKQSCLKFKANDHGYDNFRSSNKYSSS
Source text: The compounds of Formula I are valuable antagonists of endothelin.
ENDOTHELIN RECEPTOR BINDING ASSAY-B (ERBA-B) [^125 I]-ET-1 BINDING IN RAT CEREBELLAR MEMBRANES
materials and Terms Used:
Count filters for radioactivity in gamma counter.
The above process has also been modified by using human recombinant CHO-K1 cells.
The tissue used for human ETB was recombinant human ETB receptor expressed in CHO-K1 cells (chinese hamster ovary cells). The gene for human ETB receptor was cloned and inserted into the pRc-CMW expression vector, then transfected into CHO-K1 cells by electroporation. For binding assays, membranes (0.7 mg protein) of CHO-K1 cells expressing recombinant human ETB receptor were used.
^c Human cloned receptor data

[7] = system: brain; conditions: new model of local ischemia in the brain; cited from earlier work
[8] = system: central nervous system; conditions: intracerebroventricular, rats; cited from earlier work
[9] = system: basilar artery vasoconstriction; conditions: canine two-hemorrhage model, after 7 days; cited from earlier work

## CC(C)C[C@@H]1NC(=O)[C@@H](C(C)C)NC(=O)[C@@H]2CCCN2C(=O)[C@@H](CC(=O)O)NC(=O)[C@@H](Cc2c[nH]c3ccccc23)NC1=O [BQ-123] (cyclo(L[dW][dD]P[dV]))
[1]
  effect on early cerebral vasospasm following SAH: prevents early cerebral vasospasm
[2]
  survival rate: significantly increased the survival rate
[3]
  effect on early cerebral vasospasm following SAH: prevents early cerebral vasospasm

## COc1ccc(C2(OC(=O)N[C@@H](C)c3ccccc3)OC(=O)C(c3ccc4c(c3)OCO4)=C2Cc2ccccc2)cc1 (stereo partly shown) [Example 1, (1-Phenyl-ethyl)-carbamic acid-4-benzo[1,3]dioxol-5-yl-3-benzyl-2-(4-methoxy-phenyl)-5-oxo-2,5-dihydro-furan-2-yl ester]
[4]
  VERA-A pA2: 6.1

## COc1ccc(C2(OC(=O)N[C@@H](C)c3cccc4ccccc34)OC(=O)C(c3ccc4c(c3)OCO4)=C2Cc2cc(OC)c(OC)c(OC)c2)cc1 (stereo partly shown) [Example 2, (1-Naphthalen-1-yl-ethyl)-carbamic acid-4-benzo[1,3]dioxol-5-yl-2-(4-methoxy-phenyl)-5-oxo-3-(3,4,5-trimethoxy-benzyl)-2,5-dihydro-furan-2-yl ester]
[5]
  pIC50: 9.00

## CCOC(=O)CNC(=O)OC1(c2ccc(OC)cc2)OC(=O)C(c2ccc3c(c2)OCO3)=C1Cc1cc(OC)c(OC)c(OC)c1 (stereo not shown) [Example 3, [4-Ben zo[1.3]dioxol-5-yl-2-(4-methoxy-phenyl)-5-oxo-3-(3,4,5-trimethoxy-benzyl)-2,5-dihydro-furan-2-yloxycarbonylamino]-acetic acid ethyl ester]
[6]
  pIC50: 5.74
[5]
  pIC50: 9.46
[4]; read-out: VERA-A pA2 (converted)
  Kb: 50.1 nM

## COc1cccc(Oc2c(NS(=O)(=O)c3ccc(C(C)(C)C)cc3)ncnc2OCCO)c1 [Ro 46-2005]
[1]; SAH
  effect on systemic arterial blood pressure: no significant effect on systemic arterial blood pressure
[1]
  effect on early cerebral vasospasm following SAH: prevent early cerebral vasospasm

## ET-1: a potent vasoconstrictor, is a 21 amino acid bicyclic peptide (CSCSSLMDKECVYFCHLDIIW; ends and bridges not checked; also: bicyclic peptide; UniProt P05305 53-73, looked up)
[7]
  lesion development: induced lesion development
[8]
  behavioral effects: evoke several behavioral effects

## FR 139317
[9]
  inhibition of vasoconstriction of the basilar artery: significantly inhibited the vasoconstriction of the basilar artery after 7 days
